Data: US9976141B2, “Compositions and methods for inhibiting gene expression of Hif2alpha” (Arrowhead Madison Inc., priority 2015, dated 2018)
Strand notation (5' to 3'): a small letter for the sugar, then the base; units joined by * are phosphorothioate-linked, units joined directly phosphodiester-linked; [ ] holds rarer units or linkages, { } end groups; capitals alone tell only the bases. {Alk-C6-SMPT-C6} = Alk-C6-SMPT-C6 linker modification, as named by the publication; [invdT] = inverted (3'-3') thymidine; e = 2'-O-(2-methoxyethyl) (MOE); m = 2'-O-methyl; f = 2'-fluoro

Each substance was assayed on human (tumor) Hif2α (EPAS1) mRNA (assay: Hif2α knockdown in orthotopic RCC tumor bearing mice, single injection of RNAi trigger-delivery polymer conjugate, RT-qPCR (Table 7)). Settings: RNAi trigger 50 μg, polymer 064 125 μg; single tail vein injection; relative to isotonic glucose.
Type: in vivo
How it was run: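 Female athymic nude mice carried orthotopic A498-SEAP ccRCC kidney tumours, used 5–6 weeks after implantation. They received one tail-vein injection of RGD-targeted Hif2α RNAi trigger–polymer conjugate or isotonic glucose. Tumour Hif2α mRNA was measured by TaqMan RT-qPCR normalised to CycA (ΔΔCT) and expressed relative to glucose-treated mice.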

Compared with “AD03259 (antisense AUUCAUGAAAUCGUUACGUTG; sense ACGUAACGAUUUCAUGAATT; Hif2alpha RNAi agent antisense strand; modified_base 2,8,10,14 /mod_base = “2′-deoxy-2′-fluoro corresponding nucleoside”; modified_base 1,3,4,5,6,7,9,11,12,13,15,16,17,18,19 /mod_base = “2′-O-methyl corresponding nucleoside”; modified_base 20,21 /mod_base = “2′-MOE nucleotide”; modified_base 2,3,20,21 /mod_base = “5′-phosphorothioate corresponding nucleotide”; Hif2alpha RNAi agent sense strand; modified_base 7,8,9 /mod_base = “2′-deoxy-2′-fluoro corresponding nucleoside”; modified_base 1,2,3,4,5,6,10,11,12,13,14,15,16,17 /mod_base = “2′-O-methyl corresponding nucleoside”; modified_base 20 /m)”, “AD03260 (antisense AUUCAUGAAAUCGUUACGUUG; sense ACGUAACGAUUUCAUGAATT; Hif2alpha RNAi agent antisense strand; modified_base 2,8,10,14 /mod_base = “2′-deoxy-2′-fluoro corresponding nucleoside”; modified_base 1,3,4,5,6,7,9,11,12,13,15,16,17,18,19,20,21 /mod_base = “2′-O-methyl corresponding nucleoside”; modified_base 2,3,20,21 /mod_base = “5′-phosphorothioate corresponding nucleotide”; Hif2alpha RNAi agent sense strand; modified_base 7,8,9 /mod_base = “2′-deoxy-2′-fluoro corresponding nucleoside”; modified_base 1,2,3,4,5,6,10,11,12,13,14,15,16,17 /mod_base = “2′-O-methyl corresponding nucleoside”; modified_base 20 /mod_base = “3′-3′-linked nucleotide”; modified_b)” is lower in “Relative Expression day 4 (Hif2α mRNA in kidney tumor)” value: 0.179 for the first, 0.175 for the second.

First: AD03261 (antisense mA*fU*mUmCmAmUmGfAmAfAmUmCmGfUmUmAmCmGmU*mU*mG; sense ACGUAACGAUUUCAUGAAT; siRNA; sense: sugars from the 5' end e2 m4 f3 m8 e2, [invdT] at 3' end, linkages s1 o18 (s phosphorothioate, o phosphodiester), 5' {Alk-C6-SMPT-C6}, methylation of C not given here; further chemistry not fully specified)
Second: AD03262 (antisense AUUCAUGAAAUCGUUACGUUG; sense ACGUAACGAUUUCAUGAAUT; Hif2alpha RNAi agent antisense strand; modified_base 2,8,10,14 /mod_base = “2′-deoxy-2′-fluoro corresponding nucleoside”; modified_base 1,3,4,5,6,7,9,11,12,13,15,16,17,18,19,20,21 /mod_base = “2′-O-methyl corresponding nucleoside”; modified_base 2,3,20,21 /mod_base = “5′-phosphorothioate corresponding nucleotide”; Hif2alpha RNAi agent sense strand; modified_base 7,8,9 /mod_base = “2′-deoxy-2′-fluoro corresponding nucleoside”; modified_base 1,2,3,4,5,6,10,11,12,13,14,15,16,17,18,19 /mod_base = “2′-O-methyl corresponding nucleoside”; modified_base 20 /mod_base = “3′-3′-linked nucleotide”; modi)
The “Relative Expression day 4 (Hif2α mRNA in kidney tumor)” value of the first is lower: 0.177 for the first, 0.197 for the second.

Going from “AD03263 (antisense AUUCAUGAAAUCGUUACGUUG; sense ACGUAACGAUUUCAUGAAUN; Hif2alpha RNAi agent antisense strand; modified_base 2,8,10,14 /mod_base = “2′-deoxy-2′-fluoro corresponding nucleoside”; modified_base 1,3,4,5,6,7,9,11,12,13,15,16,17,18,19,20,21 /mod_base = “2′-O-methyl corresponding nucleoside”; modified_base 2,3,20,21 /mod_base = “5′-phosphorothioate corresponding nucleotide”; Hif2alpha RNAi agent sense strand; modified_base 7,8,9 /mod_base = “2′-deoxy-2′-fluoro corresponding nucleoside”; modified_base 1,2,3,4,5,6,10,11,12,13,14,15,16,17,18,19 /mod_base = “2′-O-methyl corresponding nucleoside”; modified_base 20 /mod_base = “3′-3′-linked abasic site”; mod)” to “AD03264 (antisense UUUCAUGAAAUCGUUACGUUG; sense ACGUAACGAUUUCAUGAAAT; Hif2alpha RNAi agent antisense strand; modified_base 2,3,8,10,14 /mod_base = “2′-deoxy-2′-fluoro corresponding nucleoside”; modified_base 1,4,5,6,7,9,11,12,13,15,16,17,18,19,20,21 /mod_base = “2′-O-methyl corresponding nucleoside”; modified_base 2,3,20,21 /mod_base = “5′-phosphorothioate corresponding nucleotide”; Hif2alpha RNAi agent sense strand; modified_base 7,8,9 /mod_base = “2′-deoxy-2′-fluoro corresponding nucleoside”; modified_base 1,2,3,4,5,6,10,11,12,13,14,15,16,17,18,19 /mod_base = “2′-O-methyl corresponding nucleoside”; modified_base 20 /mod_base = “3′-3′-linked nucleotide”; modi)”, the “Relative Expression day 4 (Hif2α mRNA in kidney tumor)” value rises from 0.134 to 0.264.

Going from “AD03265 (antisense UUUCAUGAAAUCGUUACGUUG; sense UAUACGUAACGAUUUCAUGAAAT; Hif2alpha RNAi agent antisense strand; modified_base 2,4,6,8,14 /mod_base = “2′-deoxy-2′-fluoro corresponding nucleoside”; modified_base 1,3,5,7,9,10,11,12,13,15,16,17,18,19,20,21 /mod_base = “2′-O-methyl corresponding nucleoside”; modified_base 2,3,20,21 /mod_base = “5′-phosphorothioate corresponding nucleotide”; Hif2alpha RNAi agent sense strand; modified_base 2 modified base = “2′-hydroxy corresponding nucleoside”; modified_base 10,11,12 /mod_base = “2′-deoxy-2′-fluoro corresponding nucleoside”; modified_base 1,3,4,5,6,7,8,9,13,14,15,16,17,18,19,20,21,22 /mod_base = “2′-O-methyl correspon)” to “AD03266 (antisense UUUCAUGAAAUCGUUACGUUG; sense ACGUAACGAUUUCAUGAAAT; Hif2alpha RNAi agent antisense strand; modified_base 2,4,6,8,14 /mod_base = “2′-deoxy-2′-fluoro corresponding nucleoside”; modified_base 1,3,5,7,9,10,11,12,13,15,16,17,18,19,20,21 /mod_base = “2′-O-methyl corresponding nucleoside”; modified_base 2,3,20,21 /mod_base = “5′-phosphorothioate corresponding nucleotide”; Hif2alpha RNAi agent sense strand; modified_base 7,8,9 /mod_base = “2′-deoxy-2′-fluoro corresponding nucleoside”; modified_base 1,2,3,4,5,6,10,11,12,13,14,15,16,17,18,19 /mod_base = “2′-O-methyl corresponding nucleoside”; modified_base 20 /mod_base = “3′-3′-linked nucleotide”; modi)”, the “Relative Expression day 4 (Hif2α mRNA in kidney tumor)” value rises from 0.294 to 0.408.
